Results taken from US5807983A, “GNRH antagonist betides” (The Salk Institute for Biological Studies, priority 1996, dated 1998).
Non-standard residues stand in square brackets, D forms with d. Residues, ends and D or L forms follow the SMILES beside them. dPhe(4-NH2) = Nc1ccc(C[C@@H](N)C(=O)O)cc1; dPhe(4-Cl) = N[C@H](Cc1ccc(Cl)cc1)C(=O)O; Phe(4-NH2) = Nc1ccc(C[C@H](N)C(=O)O)cc1; d2Nal = N[C@H](Cc1ccc2ccccc2c1)C(=O)O; Lys(iPr) = CC(C)NCCCC[C@H](N)C(=O)O; d3Pal = N[C@H](Cc1cccnc1)C(=O)O

Legend:
[1] = hydrophilicity by RP-HPLC retention; type: physicochemical; conditions: for hydrophilicity compared to Acyline: RP-HPLC; for RP-HPLC retention (hydrophilicity): gradient 40% to 75% Buffer B over 30 minutes, Buffer A TEAP pH 7.3, Buffer B 60% CH3CN and 40% Buffer A
[2] = test system: ovulation in mature female Sprague-Dawley rats; assay: standard in vivo rat anti-ovulation test; conditions: injected in bacteriostatic water at about noon on the day of proestrus
Procedure: (§1) The betide is assayed in vivo to determine its effectiveness to prevent ovulation in female rats. Inthis test, a specified number of mature female Sprague-Dawley rats, e.g. five to ten, each having a body weight from 225 to 250 grams, are injected with a specified microgram dosage of the betide in bacteriostatic water at about noon on the day of proestrus. Proestrus is the […]. A separate female rat group is used as a control to which the peptide is not administered. Each of the control female rats ovulates on the evening of proestrus; the number of the rats treated which ovulate is recorded.

[3] = examination of injected rats for tolerance and gelling at the point of injection; type: in vivo, rat; conditions: after injection in the anti-ovulation test
Procedure: as §1

circulating LH = assay: suppression of circulating LH concentrations, duration of bioactivity; type: in vivo; conditions: dose of 50 micrograms per rat; for duration of bioactivity (LH suppression): testing as in Example 1

| Molecule | hydrophilicity compared to Acyline [1] | anti-ovulatory activity: rats ovulating out of rats treated ([2]; dosage 2.5 μg) | anti-ovulatory activity: rats ovulating out of rats treated ([2]; dosage 1 μg) | other results |
| --- | --- | --- | --- | --- |
| CC(=O)Nc1ccc(C[C@H](NC(=O)[C@H](CO)NC(=O)C(NC(=O)c2ccncc2)NC(=O)[C@@H](Cc2ccc(Cl)cc2)NC(=O)[C@@H](Cc2ccc3ccccc3c2)NC(C)=O)C(=O)N[C@H](Cc2ccc(NC(C)=O)cc2)C(=O)N[C@@H](CC(C)C)C(=O)N[C@@H](CCCCNC(C)C)C(=O)N2CCC[C@H]2C(=O)N[C@H](C)C(N)=O)cc1 (single isomer, unassigned) [Betide No. 1A second isomer, Ac-β-D-2Nal-D-4Cpa-γ-(4-pyridyl)D/L-amidoGly-Ser-Aph(acetyl)-D- Aph(acetyl)-Leu-Lys(isopropyl)-Pro-D-Ala-NH2] | more hydrophilic than Acyline | 2 out of 8 | – | anti-ovulatory activity: rats ovulating out of rats treated ([2]; dosage 10 μg): 0 out of 8 |
| CC(=O)Nc1ccc(C[C@H](NC(=O)[C@H](CO)NC(=O)C(NC(=O)c2cccnc2)NC(=O)[C@@H](Cc2ccc(Cl)cc2)NC(=O)[C@@H](Cc2ccc3ccccc3c2)NC(C)=O)C(=O)N[C@H](Cc2ccc(NC(C)=O)cc2)C(=O)N[C@@H](CC(C)C)C(=O)N[C@@H](CCCCNC(C)C)C(=O)N2CCC[C@H]2C(=O)N[C@H](C)C(N)=O)cc1 (single isomer, unassigned) [Betide No. 1, Ac-D-2Nal-(4Cl)D-Phe-γ-(3-pyridyl)amidoGly-Ser-Aph(acetyl)-D-Aph(acetyl)-Leu-Lys(isopropyl)-Pro-D-Ala-NH2] | more hydrophilic | – | – | gelling at the point of injection [3]: no significant gelling; tolerance in treated rats [3]: very well tolerated; RP-HPLC retention (hydrophilicity) [1]: 23.5 min; circulating LH concentrations relative to control levels (circulating LH; for 48 hours or more): less than 25 % of control levels; duration of bioactivity (LH suppression) (circulating LH): ≥ 48 h |
| CC(=O)Nc1ccc(C[C@H](NC(=O)[C@H](CO)NC(=O)C(NC(=O)[C@@H](Cc2ccc(Cl)cc2)NC(=O)[C@@H](Cc2ccc3ccccc3c2)NC(C)=O)N(C)C(=O)c2cccnc2)C(=O)N[C@H](Cc2ccc(NC(C)=O)cc2)C(=O)N[C@@H](CC(C)C)C(=O)N[C@@H](CCCCNC(C)C)C(=O)N2CCC[C@H]2C(=O)N[C@H](C)C(N)=O)cc1 (single isomer, unassigned) [Betide No. 1B second isomer, Ac-β-D-2Nal-D-Cpa-γ-(3-pyridyl)methylD/L-amidoGly-Ser-Aph(acetyl)-D-Aph(acetyl)-Leu-Lys(isopropyl)-Pro-D-Ala-NH2] | more hydrophilic than Acyline | 3 out of 8 | – | – |
| CC(=O)Nc1ccc(C[C@H](NC(=O)[C@H](CO)NC(=O)C(NC(=O)c2ccncc2)NC(=O)[C@@H](Cc2ccc(Cl)cc2)NC(=O)[C@@H](Cc2ccc3ccccc3c2)NC(C)=O)C(=O)N[C@H](Cc2ccc(NC(C)=O)cc2)C(=O)N[C@@H](CC(C)C)C(=O)N[C@@H](CCCCNC(C)C)C(=O)N2CCC[C@H]2C(=O)N[C@H](C)C(N)=O)cc1 (single isomer, unassigned) [Betide No. 1A first isomer, Ac-β-D-2Nal-D-4Cpa-γ-(4-pyridyl)D/L-amidoGly-Ser-Aph(acetyl)-D- Aph(acetyl)-Leu-Lys(isopropyl)-Pro-D-Ala-NH2] | more hydrophilic than Acyline | only the second isomer was bioactive | – | anti-ovulatory activity: rats ovulating out of rats treated ([2]; dosage 10 μg): 3 out of 7 |
| Ac-D-2Nal-(4Cl)D-Phe-D-3Pal-Ser-Aph(acetyl)-D-Aph(acetyl)-Leu-Lys(isopropyl)-Pro-D/L-Agl(methyl)-NH2 [Example 8B] | – | 0/8 | – | – |
| CC(=O)Nc1ccc(C[C@H](NC(=O)[C@H](CO)NC(=O)[C@@H](Cc2cccnc2)NC(=O)[C@@H](Cc2ccc(Cl)cc2)NC(=O)[C@@H](Cc2ccc3ccccc3c2)NC(C)=O)C(=O)N[C@H](Cc2ccc(NC(C)=O)cc2)C(=O)N[C@@H](CC(C)C)C(=O)N[C@@H](CCCCNC(C)C)C(=O)N2CCC[C@H]2C(=O)N[C@H](C)C(N)=O)cc1 [Acyline, Ac-D-2Nal-D-4Cpa-D-3Pal-Ser-Aph(Ac)-D-Aph(Ac)-Leu-ILys-Pro-D-Ala-NH2, reference compound] (Ac-[d2Nal][dPhe(4-Cl)][d3Pal]S[Phe(4-NH2)](Ac)[dPhe(4-NH2)](Ac)L[Lys(iPr)]P[dA]-NH2) | – | – | – | RP-HPLC retention (hydrophilicity) [1]: 24.1 min |
| CC(=O)Nc1ccc(C[C@H](NC(=O)C(NC=O)NC(=O)[C@@H](Cc2cccnc2)NC(=O)[C@@H](Cc2ccc(Cl)cc2)NC(=O)[C@@H](Cc2ccc3ccccc3c2)NC(C)=O)C(=O)N[C@H](Cc2ccc(NC(C)=O)cc2)C(=O)N[C@@H](CC(C)C)C(=O)N[C@@H](CCCCNC(C)C)C(=O)N2CCC[C@H]2C(=O)N[C@H](C)C(N)=O)cc1 (single isomer, unassigned) [Betide No. 2B other isomer, Ac-D-2Nal-D-4Cpa-D-3Pal-D/L-Agl(formyl)-Aph(Ac)-D-Aph(Ac)-Leu-Lys(isopropyl)-Pro-D-Ala-NH2] | – | – | 6 out of 8 | anti-ovulatory activity: rats ovulating out of rats treated ([2]; dosage 5 μg): 0/8 |
| CC(=O)Nc1ccc(C[C@H](NC(=O)[C@H](CO)NC(=O)[C@@H](Cc2cccnc2)NC(=O)[C@@H](Cc2ccc(Cl)cc2)NC(=O)C(NC(C)=O)NC(=O)c2ccc3ccccc3c2)C(=O)N[C@H](Cc2ccc(NC(C)=O)cc2)C(=O)N[C@@H](CC(C)C)C(=O)N[C@@H](CCCCNC(C)C)C(=O)N2CCC[C@H]2C(=O)N[C@H](C)C(N)=O)cc1 (single isomer, unassigned) [Betide No. 3, Ac-γ-(2-naphthoyl)amidoGly-4Cl-D-Phe-D-3Pal-Ser-Aph(acetyl)-D-Aph(acetyl)-Leu-Lys(isopropyl)-Pro-D-Ala-NH2] | – | 0/8 | 2 out of 7 | duration of bioactivity (LH suppression) (circulating LH): ≥ 48 h |
| CC(=O)Nc1ccc(C[C@H](NC(=O)[C@H](CO)NC(=O)[C@@H](Cc2cccnc2)NC(=O)[C@@H](Cc2ccc(Cl)cc2)NC(=O)C(NC(C)=O)N(C)C(=O)c2ccc3ccccc3c2)C(=O)N[C@H](Cc2ccc(NC(C)=O)cc2)C(=O)N[C@@H](CC(C)C)C(=O)N[C@@H](CCCCNC(C)C)C(=O)N2CCC[C@H]2C(=O)N[C@H](C)C(N)=O)cc1 (single isomer, unassigned) [Betide No. 3C first isomer, Ac-D/L-Agl(methyl,2-naphthoyl)-D-4Cpa-D-3Pal-Ser-Aph(acetyl)-D-Aph(acetyl)-Leu-Lys(isopropyl)-Pro-D-Ala-NH2] | – | fully active | 2 out of 8 | – |
| Ac-D-2Nal-(4Cl)D-Phe-D-3Pal-Ser-Aph(acetyl)-D-Aph(acetyl)-Leu-Lys(isopropyl)-Pro-D/L-Agl-NH2 [Betide No. 8A] | more hydrophilic than Acyline | 0 out of 8 | – | – |
| CC(=O)Nc1ccc(C[C@H](NC(=O)[C@H](CO)NC(=O)C(NC(=O)[C@@H](Cc2ccc(Cl)cc2)NC(=O)[C@@H](Cc2ccc3ccccc3c2)NC(C)=O)N(C)C(=O)c2cccnc2)C(=O)N[C@H](Cc2ccc(NC(C)=O)cc2)C(=O)N[C@@H](CC(C)C)C(=O)N[C@@H](CCCCNC(C)C)C(=O)N2CCC[C@H]2C(=O)N[C@H](C)C(N)=O)cc1 (single isomer, unassigned) [Betide No. 1B first isomer, Ac-β-D-2Nal-D-Cpa-γ-(3-pyridyl)methylD/L-amidoGly-Ser-Aph(acetyl)-D-Aph(acetyl)-Leu-Lys(isopropyl)-Pro-D-Ala-NH2] | more hydrophilic than Acyline | only the second isomer was bioactive | – | – |
| Ac-2Nal-4Cl-D-Phe-D-3Pal-Ser-Aph(acetyl)-D-Aph(acetyl)-Leu-Lys(isopropyl)- Pro-D/L-Agl(methyl,For)-NH2 [Betide No. 8C] | more hydrophilic than Acyline | 0/8 | 1 out of 8 | – |
| Ac-D-2Nal-D-4Cpa-D-3Pal-Ser-Aph(acetyl)-D-Aph(acetyl)-D/L-Agl(methyl,acetyl)-Lys(isopropyl)-Pro-D-Ala-NH2 [Betide No. 6] | – | 2 out of 8 | – | anti-ovulatory activity: rats ovulating out of rats treated ([2]; dosage 10 μg): 0 out of 8 |
| Ac-D-2Nal-D-4Cpa-D-3Pal-Ser-Aph(acetyl)-D-Aph(acetyl)-Leu-D/L-Agl(guanidinoacetyl)-Pro-D-Ala-NH2 [Betide No. 7B] | – | 1 out of 7 | 3 out of 4 | anti-ovulatory activity: rats ovulating out of rats treated ([2]; dosage 5 μg): 0/4 |
| Ac-D-2Nal-(4Cl)D-Phe-D-3Pal-Ser-Aph(acetyl)-D-Aph(acetyl)-Leu-D/L-Agl(acetyl-β-Ala)-Pro-D-Ala-NH2 [Betide No. 7] | more hydrophilic than Acyline | 3 out of 9 | – | anti-ovulatory activity: rats ovulating out of rats treated ([2]; dosage 5 μg): 0 out of 11 |
| CC(=O)Nc1ccc(C[C@H](NC(=O)C(NC(=O)CO)NC(=O)[C@@H](Cc2cccnc2)NC(=O)[C@@H](Cc2ccc(Cl)cc2)NC(=O)[C@@H](Cc2ccc3ccccc3c2)NC(C)=O)C(=O)N[C@H](Cc2ccc(NC(C)=O)cc2)C(=O)N[C@@H](CC(C)C)C(=O)N[C@@H](CCCCNC(C)C)C(=O)N2CCC[C@H]2C(=O)N[C@H](C)C(N)=O)cc1 (single isomer, unassigned) [Betide No. 2A other isomer, Ac-D-2Nal-D-4Cpa-D-3Pal-D/L-Agl(HO-Ac)Aph(Ac)-D-Aph(Ac)-Leu-Lys(isopropyl)-Pro-D-Ala-NH2] | – | – | – | anti-ovulatory activity: rats ovulating out of rats treated ([2]; dosage 5 μg): 4 out of 8 |
